Test results from ChEMBL document CHEMBL1773043, “Platensimycin and platencin congeners from Streptomyces platensis” (J Nat Prod, 2011).
Active and inactive are the calls of the source.

Key:
[1] = system: Streptococcus pneumoniae; assay: Antibacterial activity against Streptococcus pneumoniae at 64 ug/ml after 20 hrs; assay type: functional, organism-based
[2] = biological target: T1, 3-oxoacyl-[acyl-carrier-protein] synthase 2 (Staphylococcus aureus) (UniProt Q5TKS0); assay: Inhibition of Staphylococcus aureus […] assessed as [2-14C]-malonyl CoA incorporation after 90 mins by cell free-based scintillation counting
T1 sequence (whole entry): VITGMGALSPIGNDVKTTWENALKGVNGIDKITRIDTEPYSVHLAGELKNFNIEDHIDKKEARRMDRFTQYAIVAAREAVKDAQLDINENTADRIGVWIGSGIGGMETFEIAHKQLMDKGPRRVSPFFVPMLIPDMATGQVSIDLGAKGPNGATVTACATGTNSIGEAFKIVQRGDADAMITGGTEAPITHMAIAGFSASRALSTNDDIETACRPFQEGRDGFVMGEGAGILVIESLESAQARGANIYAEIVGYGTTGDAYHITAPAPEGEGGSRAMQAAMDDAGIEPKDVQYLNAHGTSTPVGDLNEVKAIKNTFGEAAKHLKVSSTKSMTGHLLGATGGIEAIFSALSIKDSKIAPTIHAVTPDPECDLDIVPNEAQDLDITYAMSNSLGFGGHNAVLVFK

[3] = system: Staphylococcus aureus; assay: Antibacterial activity against Staphylococcus aureus at 64 ug/ml after 20 hrs; assay type: functional, organism-based
[4] = system: Enterococcus faecalis; assay: Antibacterial activity against Enterococcus faecalis at 64 ug/ml after 20 hrs; assay type: functional, organism-based
[5] = system: Enterococcus faecium; assay: Antibacterial activity against Enterococcus faecium at 64 ug/ml after 20 hrs; assay type: functional, organism-based
[6] = system: Escherichia coli; assay: Antibacterial activity against Escherichia coli at 64 ug/ml after 20 hrs; assay type: functional, organism-based
[7] = system: Haemophilus influenzae; assay: Antibacterial activity against Haemophilus influenzae at 64 ug/ml after 20 hrs; assay type: functional, organism-based

C=C1C[C@@]23C=CC(=O)[C@@](C)(CCC(=O)OC)C2C[C@@H]1C[C@H]3O (stereo not given in full)
inactive: Activity [1] | inhibition [2] | Activity [3] | Activity [4] | Activity [5] | Activity [6] | Activity [7]

C/C(=C\CC[C@]1(C)C(=O)C=C[C@]23CC4C[C@H](O[C@]4(C)C2)C31)C(=O)N[C@@H](CCC(N)=O)C(=O)O (stereo not given in full)
inactive: Activity [1] | inhibition [2] | Activity [3] | Activity [4] | Activity [5] | Activity [6] | Activity [7]

COC(=O)c1ccc(O)c(NC(=O)CC[C@]2(C)C(=O)C=CC34CCC(CC32)[C@@](O)(CO)C4)c1O (stereo not given in full)
inactive: Activity [1] | inhibition [2] | Activity [3] | Activity [4] | Activity [5] | Activity [6] | Activity [7]

C[C@@]12C[C@@]34C=CC(=O)[C@@](C)(CCC(=O)O)C3[C@H](CC1C4)O2 (stereo not given in full)
inactive: Activity [1] | inhibition [2] | Activity [3] | Activity [4] | Activity [5] | Activity [6] | Activity [7]

C[C@@]12C[C@@]34C=CC(=O)[C@@](C)(CCC(=O)Nc5c(O)cccc5O)C3[C@H](CC1C4)O2 (stereo not given in full)
inactive: Activity [1] | inhibition [2] | Activity [3] | Activity [4] | Activity [5] | Activity [6] | Activity [7]

C[C@@]12C[C@@]34C=CC(=O)[C@@](C)(CCC(=O)Nc5c(O)ccc(C(N)=O)c5O)C3[C@H](CC1C4)O2 (stereo not given in full)
inactive: Activity [1] | inhibition [2] | Activity [3] | Activity [4] | Activity [5] | Activity [6] | Activity [7]

C=C1CC23C=CC(=O)[C@@](C)(CCC(=O)OCC(O)CO)C2CC1CC3 (stereo not given in full)
inactive: Activity [1] | inhibition [2] | Activity [3] | Activity [4] | Activity [5] | Activity [6] | Activity [7]

C[C@@]1(CCC(=O)Nc2c(O)ccc(C(=O)O)c2O)C(=O)C=CC23CC4CC(OC4(CO)C2)C31 (stereo not given in full)
inactive: Activity [1] | inhibition [2] | Activity [3] | Activity [4] | Activity [5] | Activity [6] | Activity [7]

CC12C[C@@]34C=CC(=O)[C@@](C)(CCC(=O)Nc5c(O)ccc(C(=O)O)c5O)C3[C@H](CC1C4)O2 (stereo not given in full)
inactive: Activity [1] | Activity [3] | Activity [4] | Activity [5] | Activity [6] | Activity [7]

COCC(O)COc1ccc(C(C)(C)c2ccc(OCC(O)CO)cc2)cc1 (stereo not given)
inactive: Activity [1] | inhibition [2] | Activity [3] | Activity [4] | Activity [5] | Activity [6] | Activity [7]

C[C@@]1(CCC(=O)Nc2c(O)ccc(C(=O)O)c2O)C(=O)C=CC23CC(CCC21)C(O)(CO)C3 (stereo not given in full)
inactive: Activity [1] | inhibition [2] | Activity [3] | Activity [4] | Activity [5] | Activity [6] | Activity [7]

COC(=O)c1ccc(O)c(NC(=O)CC[C@]2(C)C(=O)C=CC34C[C@@]5(C)O[C@@H](CC5[C@H]3O)C42)c1O (stereo not given in full)
inactive: Activity [1] | inhibition [2] | Activity [3] | Activity [4] | Activity [5] | Activity [6] | Activity [7]

C=C1CC23C=CC(=O)[C@@](C)(CCC(=O)Nc4c(O)ccc(C(=O)O)c4O)C2CC1[C@@H](O)C3 (stereo not given in full)
inactive: Activity [1] | inhibition [2] | Activity [3] | Activity [4] | Activity [5] | Activity [6] | Activity [7]

COC(=O)[C@H](CCC(N)=O)NC(=O)/C(C)=C/CC[C@]1(C)C(=O)C=C[C@]23CC4C[C@H](O[C@]4(C)C2)C31 (stereo not given in full)
inactive: Activity [1] | inhibition [2] | Activity [3] | Activity [4] | Activity [5] | Activity [6] | Activity [7]

C[C@@]1(CCC(=O)Nc2c(O)ccc(C(=O)O)c2O)C(=O)C=CC23CCC(CC21)[C@@](O)(CO)C3 (stereo not given in full)
inactive: Activity [1] | inhibition [2] | Activity [3] | Activity [4] | Activity [5] | Activity [6] | Activity [7]

C=C1C[C@@]23C=CC(=O)[C@@](C)(CCC(=O)Nc4c(O)ccc(C(=O)O)c4O)[C@@H]2C[C@@H]1CC3
inactive: Activity [1] | Activity [3] | Activity [4] | Activity [5] | Activity [6] | Activity [7]

C=C1C2CCC3(C=CC(=O)[C@@](C)(CCC(=O)Nc4c(O)ccc(C(=O)O)c4O)C3C2)[C@H]1O (stereo not given in full)
inactive: Activity [1] | inhibition [2] | Activity [3] | Activity [4] | Activity [5] | Activity [6] | Activity [7]

C=C1CC23C=CC(=O)[C@@](C)(CCC(=O)Nc4c(O)ccc(C(=O)OC)c4O)C2CC1C[C@H]3O (stereo not given in full)
inactive: Activity [1] | inhibition [2] | Activity [3] | Activity [4] | Activity [5] | Activity [6] | Activity [7]

C[C@@]12C[C@]34CC1C[C@H](O2)C3[C@](C)(CCC(=O)Nc1c(O)ccc(C(=O)O)c1O)C(=O)C[C@H]4O (stereo not given in full)
inactive: Activity [1] | inhibition [2] | Activity [3] | Activity [4] | Activity [5] | Activity [6] | Activity [7]

C=C1CC23C=CC(=O)[C@@](C)(CCC(=O)Nc4c(O)ccc(C(=O)O)c4O)C2CC1C[C@H]3O (stereo not given in full)
inactive: Activity [1] | inhibition [2] | Activity [3] | Activity [4] | Activity [5] | Activity [6] | Activity [7]

C=C1CC23C=CC(=O)[C@@](C)(CCC(=O)Nc4c(O)ccc(C(=O)OC)c4O)C2CC1[C@@H](O)C3 (stereo not given in full)
inactive: Activity [1] | inhibition [2] | Activity [3] | Activity [4] | Activity [5] | Activity [6] | Activity [7]
